Values of other authors as cited in paper PMC7610473, “Axial functionalisation of photoactive diazido platinum(iv) anticancer complexes” (Inorganic chemistry frontiers, 2020).

Design: method as in PMID 9399704

O=C(O)c1cc2ccc(O)cc2oc1=O [7-hydroxycoumarin-3 carboxylic acid]
pK a: 1.98
